Where two headings read alike, the source gives them in different places.
Assays:
[1] = tested on: cell bound form of LFA-1 (CD18, CD11a) with ICAM-1, SKW3 cells; test: Inhibition of SKW3 cell binding to ICAM-1 (PMA-stimulated); type: cell-based, human; conditions: Homo sapiens, read-out: Assay to Detect SKW3 Cells Binding to ICAM IC50
Text: (§1) Assay to Determine Inhibition of SKW3 cell binding to ICAM-1 vs. Binding to Fibronectin
(§2) This assay is used to test the selective ability of a test compound to antagonize the interaction of a cell bound form of LFA-1 with ICAM-1. The assay uses a human T cell line, SKW3 cells which express CD18, CD11a and other integrins not related to CD18, CD11a and which can be “activated” by phorbol esters. Phorbol esters enhance the affinity of CD18, CD11a for ICAM-1.
(§3) This same lymphocyte line, SKW3, also adheres to fibronectin in the presence of phorbol esters. This adhesion is mediated by membrane proteins independent of the LFA-1/ICAM-1 interaction. The SKW3 cells express another integrin, VLA4, which is the receptor for fibronectin. Therefore, as a preliminary indication of the selectivity of a test compounds to interfere with Leukointegrin/CAM interactions but not other integrin-ligand binding events, a compound can be tested for its ability to antagonize cell bound fibronectin receptor in its interaction with purified fibronectin. Compounds that inhibit this fibronectin adhesion are not specific antagonists of the CD18, CD11a/ICAM-1 binding.
(§4) Description of Assay Protocol:
(§5) Ninety-six well plates are coated with either sICAM-1(40 μg/mL) or fibronectin (100 μg/mL) in Diluting buffer for 1 h at room temperature. Added to the wells are 100 μL of the appropriately diluted test compound or 100 μL of RPMI with 15% fetal bovine serum as a control. SKW3 cells, which express CD18, CD11a and VLA4 (Dustin, M.; et al., J. Exp. Med. 1987, 165, 672-692) are washed and suspended to a concentration of 10^6 cells/mL in RPMI with 15% fetal bovine serum. Immediately before adding the cells to the wells, cells are stimulated with the phorbol ester 12-myristate 13-acetate (PMA) for a final concentration of […]. 100 μL of cells are then added to the wells resulting in a final concentration of […]. The plates are incubated for 2 h at 37° C. Unbound or loosely bound cells are gently washed away with RPMI.
(§6) Data are reported as the concentration or concentration range (in μM) at which 50% of binding is inhibited.

[2] = tested on: cell bound fibronectin receptor (VLA4) with fibronectin, SKW3 cells; test: Inhibition of SKW3 cell binding to fibronectin (selectivity counter-assay); type: cell-based, human; conditions: for IC50: Homo sapiens, read-out: Assay to Detect SKW3 Cells Binding to FIBRONECTIN IC50
Text: as §1, §2, §3, §4, §5, §6

[3] = tested on: LFA-1 dependent aggregation of JY cells; test: JY cell homotypic aggregation assay (PMA-stimulated); type: cell-based, human; conditions: Homo sapiens
Text: This aggregation can be enhanced by the addition of phorbol esters. […] Thus, the extent of LFA-1-dependent binding may be determined by assessing the extent of spontaneous or phorbol ester-dependent aggregate formation.
An agent which interferes with LFA-1 -dependent aggregation can be identified through the use of an assay capable of determining whether the agent interferes with either spontaneous, or phorbol ester-dependent aggregation of Epstein-Barr virus transformed cells. It is preferable to employ cells of the JY cell line (Terhost, L; et aL, Proc. Natl. Acad. Sci. USA, 1976, 73, 910) for the homotypic aggregation assay. This assay, capable of measuring LFA-1 dependent aggregation, may be employed to identify agents which act as antagonists to the LFA-1 dependent aggregation. Such agents may act by impairing the ability of either LFA-1 or ICAM-1 to mediate aggregation. Thus, agents may be examined to directly determine if they are antagonists of LFA-1 aggregation.
as §4
JY cells are cultured in RPMI 1640 culture medium supplemented with 10% fetal calf serum and 50 μg/mL gentamycin. The cells are cultured at 37° C. in an atmosphere of 5% CO2 at a relative humidity of 95%. JY cells used in this assay are washed two times with RPMI 1640 medium containing 5 mM HEPES buffer and resuspended to a concentration of 2·10^6 cells/mL. Added to flat-bottomed, 96-well microtiter plates are 50 μL of test compound diluted in complete medium, 50 μL of complete medium with or without purified monoclonal antibodies (negative and positive controls for inhibition, respectively), 50 μL of complete medium containing 200 ng/mL of the phorbol ester phorbol myristate acetate (PMA) and 100 μL of cells at a concentration of 2·10^6 cells/mL in complete medium. This yields a final concentration of […] PMA and 2·10^5 cells/well. Cells are allowed to settle spontaneously, and the degree of aggregation is scored at various time points. […] This procedure has been described by Rothlein, R. R.; et al., J. Exp. Med. 1986, 163, 1132-1149. This paper also reported that antibody to LFA-1 is capable of inhibiting the formation of aggregates.
as §6

[4] = biological target: T1, interaction of ICAM-1 with the Leukointegrin CD18/CD11a (LFA-1) (Homo sapiens, UniProt P05107+P20701); test: Assay to determine inhibition of LFA-1 binding to ICAM-1 (immunopurified LFA-1 on plate-bound sICAM-1, ELISA readout)
T1 construct: endogenous in cells; sICAM-1: made in house, secreted from transfected CHO DUX cells

[5] = No inh = no inhibition observed up to highest dose, exact quantification not always possible due to intrinsic toxicity
[6] = SKW3, values marked c: no inhibition observed up to highest dose
[7] = values marked c: no inhibition observed up to highest dose
[8] = values marked e approximated from incomplete dose-response curve

T1 sequence (P20701 26-1170): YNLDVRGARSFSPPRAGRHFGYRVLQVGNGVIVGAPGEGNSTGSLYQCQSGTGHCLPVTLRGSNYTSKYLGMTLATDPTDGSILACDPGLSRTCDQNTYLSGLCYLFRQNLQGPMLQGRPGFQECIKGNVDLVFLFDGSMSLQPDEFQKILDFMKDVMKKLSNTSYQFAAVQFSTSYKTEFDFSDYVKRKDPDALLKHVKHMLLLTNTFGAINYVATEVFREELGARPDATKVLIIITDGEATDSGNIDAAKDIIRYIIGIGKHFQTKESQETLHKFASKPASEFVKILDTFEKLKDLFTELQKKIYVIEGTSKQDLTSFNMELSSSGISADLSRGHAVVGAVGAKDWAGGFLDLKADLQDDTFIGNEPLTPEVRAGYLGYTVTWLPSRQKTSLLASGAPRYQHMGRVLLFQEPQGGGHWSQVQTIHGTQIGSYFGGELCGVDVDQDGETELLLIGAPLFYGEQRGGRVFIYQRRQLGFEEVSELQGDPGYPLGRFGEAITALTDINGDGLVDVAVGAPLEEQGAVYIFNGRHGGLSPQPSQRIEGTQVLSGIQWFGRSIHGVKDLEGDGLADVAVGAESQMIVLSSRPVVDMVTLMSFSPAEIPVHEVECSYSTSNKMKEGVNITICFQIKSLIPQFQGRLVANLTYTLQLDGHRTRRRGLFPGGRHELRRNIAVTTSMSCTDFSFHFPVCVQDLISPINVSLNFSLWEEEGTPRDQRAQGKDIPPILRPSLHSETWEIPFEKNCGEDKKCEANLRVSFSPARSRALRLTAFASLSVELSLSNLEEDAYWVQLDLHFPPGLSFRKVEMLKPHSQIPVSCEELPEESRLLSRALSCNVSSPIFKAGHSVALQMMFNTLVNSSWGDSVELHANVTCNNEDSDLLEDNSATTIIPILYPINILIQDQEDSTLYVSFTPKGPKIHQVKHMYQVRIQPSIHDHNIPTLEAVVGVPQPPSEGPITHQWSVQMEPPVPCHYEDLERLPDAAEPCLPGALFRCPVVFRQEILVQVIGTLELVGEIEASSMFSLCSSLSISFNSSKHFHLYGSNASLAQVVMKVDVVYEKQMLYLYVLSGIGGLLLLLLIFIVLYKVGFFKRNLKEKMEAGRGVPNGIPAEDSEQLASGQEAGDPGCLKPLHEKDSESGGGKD
T1 sequence (P05107 23-769): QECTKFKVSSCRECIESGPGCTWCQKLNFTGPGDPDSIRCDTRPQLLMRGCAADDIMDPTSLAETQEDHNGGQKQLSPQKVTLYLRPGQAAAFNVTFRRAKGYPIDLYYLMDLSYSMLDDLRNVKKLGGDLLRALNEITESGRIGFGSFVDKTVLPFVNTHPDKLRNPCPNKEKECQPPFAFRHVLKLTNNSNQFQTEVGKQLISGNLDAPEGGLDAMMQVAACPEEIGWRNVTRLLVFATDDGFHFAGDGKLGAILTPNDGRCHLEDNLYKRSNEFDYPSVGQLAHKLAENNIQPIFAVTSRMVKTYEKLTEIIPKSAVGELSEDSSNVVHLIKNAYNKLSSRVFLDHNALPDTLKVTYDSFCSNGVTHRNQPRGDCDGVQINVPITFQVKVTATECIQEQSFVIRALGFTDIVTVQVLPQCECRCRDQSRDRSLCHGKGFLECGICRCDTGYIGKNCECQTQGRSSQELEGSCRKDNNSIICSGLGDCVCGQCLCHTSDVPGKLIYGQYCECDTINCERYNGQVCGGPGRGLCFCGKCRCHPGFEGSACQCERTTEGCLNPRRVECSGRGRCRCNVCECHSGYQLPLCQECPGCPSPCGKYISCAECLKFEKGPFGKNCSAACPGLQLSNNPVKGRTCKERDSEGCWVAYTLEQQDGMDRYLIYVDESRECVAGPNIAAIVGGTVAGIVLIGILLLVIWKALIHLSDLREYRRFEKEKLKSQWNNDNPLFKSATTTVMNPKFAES

| SMILES | IC50 ([1]; SKW3) [nM] | Cellular Toxicity Assay MTT LD50 (SKW3 cells) [µM] | Assay to Detect SKW3 Cells Binding to FIBRONECTIN IC50 [2, 5] | IC50 [3] [nM] | Kd [4] [nM] | IC50 [1, 6] [nM] | Assay to Detect SKW3 Cells Binding to FIBRONECTIN IC50 [2, 7] | Kd [4, 8] [nM] | IC50 [2, 6] [nM] | IC50 ([2]; SKW3, No inh = no inhibition observed up to highest dose, exact quantification not always possible due to intrinsic toxicity) [nM] |
| --- | --- | --- | --- | --- | --- | --- | --- | --- | --- | --- |
| CN1C(=O)N(c2cc(Cl)cc(Cl)c2)C(=O)C1(C)Cc1ccc(Br)cc1O (stereo not drawn) [Example 248] | 9000 to 18000 | 50 to 100 | No inh^c | 700 | 370 | – | – | – | – | – |
| CCN1C(=O)N(c2cc(Cl)cc(Cl)c2)C(=O)[C@@]1(C)Cc1ccc(Br)cc1 [Example 97] | – | >350 | – | 2000 | – | 5000 to 10000 | No inh^c | 23 | – | – |
| CN1C(=O)N(c2cc(Cl)cc(Cl)c2)C(=O)[C@@]1(C)Cc1ccc([N+](=O)[O-])cc1 [Example 134] | – | >250 | – | 100 | – | 1500 | No inh^c | 50 | – | – |
| C[C@@]1(Cc2ccc(Br)cc2)C(=O)N(c2cc(Cl)cc(Cl)c2)C(=O)N1C(=O)[C@H]1CCCN1 [Example 235] | 9000 | 100 to 200 | No inh^c | 1600 | 330 | – | – | – | – | – |
| CN1CCC(N2C(=O)N(c3cc(Cl)cc(Cl)c3)C(=O)[C@@]2(C)Cc2ccc(Br)cc2)CC1 [Example 37] | – | <13 | – | 1600 | – | 5000 to 10000 | – | 160 | > 19000 | – |
| CN1C(=O)N(c2cc(Cl)cc(Cl)c2)C(=O)[C@@]1(C)Cc1ccc(C#N)cc1 [Example 127] | – | 125 to 250 | – | 100 | – | 800 to 1600 | No inh^c | 50 | – | – |
| CC(C)N1C(=O)N(c2cc(Cl)cc(Cl)c2)C(=O)[C@@]1(C)Cc1ccc(Br)cc1 [Example 273] | 38000 | 150 to 300 | – | 2000 | 190 | – | – | – | – | > 75000 |
| CC1(Cc2ccc(Br)cc2)OC(=O)N(c2cc(Cl)cc(Cl)c2)C1=O (stereo not drawn) [Example 180] | – | 200 to 400 | – | 1300 | – | 1500 to 3000 | No inh^c | 190 | – | – |
| CC(C)N1C(=O)N(c2cc(Cl)cc(Cl)c2)C(=O)C1Cc1ccc(Br)cc1 (stereo not drawn) [Example 34] | – | 200 to 400 | – | 1800 | – | 6000 | No inh^c | 130 | – | – |
| CC(=O)N1C(=O)N(c2cc(Cl)cc(Cl)c2)C(=O)[C@@]1(C)Cc1ccc(C#N)cc1 [Example 128] | – | 125 to 250 | – | 100 | – | 1500 | No inh^c | 160 | – | – |
| CCC1(Cc2ccc(Br)cc2)C(=O)N(c2cc(Cl)cc(Cl)c2)C(=O)N1C (stereo not drawn) [Example 172] | – | 165 | – | 700 | – | 1800 | No inh^c | 170 | – | – |
| C[C@@]1(Cc2ccc(Br)cc2)C(=O)N(c2cc(Cl)cc(Cl)c2)C(=O)N1C[C@H](O)c1ccccc1 [Example 132] | – | 200 to 400 | – | 2400 | – | 5000 | No inh^c | 220 | – | – |
| C[C@@]1(Cc2ccc(Br)cc2)C(=O)N(c2cc(Cl)cc(Cl)c2)C(=O)N1Cc1cccc(O)c1 [Example 245] | 1000 to 3000 | 25 to 50 | No inh^c | 700 | 210 | – | – | – | – | – |
| CCCN1C(=O)N(c2cc(Cl)cc(Cl)c2)C(=O)C1(C)Cc1ccc(Br)cc1 (stereo not drawn) [Example 137] | – | 200 to 400 | – | 400 | – | 1000 to 3000 | No inh^c | 40 | – | – |
| C[C@@]1(Cc2ccc(Br)cc2)C(=O)N(c2cc(Cl)cc(Cl)c2)C(=O)N1C1CCNCC1 [Example 224] | 5000 to 10000 | <25 | No inh^c | 3100 | 280 | – | – | – | – | – |
| C[C@@]1(Cc2ccc(Br)cc2)C(=O)N(c2cc(Cl)cc(Cl)c2)C(=O)N1CCCNC(=N)N [Example 262] | 1000 to 2000 | 25 to 75 | No inh^c | 400 | 80 | – | – | – | – | – |
| C[C@]1(Cc2cc(Br)cc(Br)c2)NC(=O)N(c2cc(Cl)cc(Cl)c2)C1=O [Example 40] | – | 50 to 100 | – | 25000 | – | 50000 to 100000 | – | 480 | 50000 to 100000 | – |
| C[C@@]1(Cc2ccc(Br)cc2)C(=O)N(c2cc(Cl)cc(Cl)c2)C(=O)N1Cc1cccnc1 [Example 111] | – | 36 | – | 75000 | – | 3000 | No inh^c | 190 | – | – |
